Source: ChEMBL document CHEMBL3507680, “University of Dundee, Gates Library screen for HepG2 cell viability”

Assay: Human HepG2 cell viability assay in 384 well format
Format: toxicity, cell-based
Set-up: dose 125 nL, time 70.5 hour; cytotoxicity at 70.5 h: concentration not given beside the values
Details: HepG2 cells, read-out: Inhibition

Compound	cytotoxicity at 70.5 h [%]
CS(=O)(=O)Cc1nc(CN2CC=C(c3ccccc3)CC2)cs1	-10.5
Cc1ccccc1NS(=O)(=O)c1ccc(C(=O)O)cc1F	-2.98
O=C1NC2(Nc3ncccc31)C(=O)Nc1c2ccc(Cl)c1F (centres undefined)	-6.95
CNC(=O)Cc1noc(Cc2cccc(Cl)c2)n1	-12.1
Cn1cc(NC(=O)c2ccccn2)cc(Br)c1=O	-4.48
Cc1cc(=O)c(C(=O)N(C)Cc2ccc(Cl)c(F)c2)c[nH]1	-1.6
Cc1csc(N2CCC(NCC3(O)CCc4ccccc43)CC2)n1 (centres undefined)	-7.31
CC(C1CC1)N(C)C(=O)CCn1cccn1 (centres undefined)	8.62
CN(CC(=O)N(C)C1CCCCC1)Cc1nc2c(cnn2C)c(=O)[nH]1	8.15
OC1(CNC2CCN(Cc3ccncc3)CC2)CCc2ccccc21 (centres undefined)	-5.39
CC(NCCCC#N)c1ccc(S(C)(=O)=O)c(F)c1 (centres undefined)	9.59
Cc1nc(CN2C[C@@H]3CN(C(=O)CC(F)(F)F)C[C@@H]3C2=O)cs1	-9.18
CC(=O)NCC(=O)N1Cc2nccn2CC(CN2CCCC2=O)C1 (centres undefined)	-7.77
O=C(C1CC=CC1)N1Cc2nccn2CC(CN2CCCC2)C1 (centres undefined)	-4.01
Cn1ccc(C(=O)NC2CCC23CCN(C(=O)C2CCOCC2)CC3)c1 (centres undefined)	-4.15
CO[C@@H]1CCN(S(=O)(=O)c2cccs2)[C@H]1Cc1ccccc1	-0.149
CCOCC1CN(CC2CC2)Cc2cnn(C)c21 (centres undefined)	-8.87
CO[C@@H]1CCN(Cc2cccs2)[C@H]1Cc1ccncc1	-0.408
Cn1ccc(C(=O)NC2CCC23CCN(C(=O)c2cnccn2)CC3)c1 (centres undefined)	-7.61
Cn1ncc2c1C(COCC1CC1)CN(CC1CC1)C2 (centres undefined)	-6.33
Cn1ncc2c1C(COCC1CC1)CN(S(C)(=O)=O)C2 (centres undefined)	-9.85
O=C(NCc1cccnc1)N1CCn2c(Cn3cccn3)cnc2C1	-0.141

Compound	cytotoxicity at 70.5 h [%]
O=C(NCc1ccccc1)N1CCn2c(Cn3cccn3)cnc2C1	-2.08
CN(C)C(=O)N1CCc2c(COCC3CC3)cncc2C1	-4.34
O=C([C@@H]1CCCO1)N1CCn2c(Cn3cccn3)cnc2C1	-0.354
CCOCC(=O)N1CC[C@H]2[C@@H]1CCC(=O)N2Cc1csc(C)n1	-10.5
CCC(CC)CN1CCC2(CCCN(c3ncccn3)C2)C1 (centres undefined)	25.1
Cc1ccc2c(c1)C1(CCN(C(N)=O)CC1)CN2C(=O)N(C)C	-7.46
O=C(c1cccnc1)N1CCc2c(COCC3CC3)cncc2C1	-2.77
O=C(c1ccncc1F)N1CCc2ncnc(N3CCOCC3)c2CC1	-9.98
CN(Cc1cccnc1)CC1CNCc2nccn2C1 (centres undefined)	4.1
Cc1cccc(C(=O)N2CCc3c(COCC4CC4)cncc3C2)n1	-10.4
O=C(c1ccoc1)N1CCc2c(COCC3CC3)cncc2C1	14.9
CN(C)C(=O)NC1COC2(CCN(Cc3ccco3)CC2)C1 (centres undefined)	-12.8
CN(C)C(=O)NC1COC2(CCN(S(=O)(=O)c3ccccc3)CC2)C1 (centres undefined)	-10.3
O=C(O)c1cc2c(nc1-c1ccncc1)CCN(Cc1ccoc1)CC2	-7.98
CO[C@H]1CCN(Cc2nccs2)C[C@@H]1Cc1ccccc1	-0.233
Cc1ccc(N2C[C@H]3OCC[C@H]3[C@H](C(=O)NC3CCC3)C2)nn1	-13
CN(C)C(=O)c1cnc2n1CCN(Cc1ccncc1)C2	19.9
COCCC(=O)N1CCC2(COCc3cnc(N(C)C)nc32)C1 (centres undefined)	-8.65
CN1CCCC2(CC1)CCN(C(=O)CCc1ccccc1F)CC2	-6.92
CSc1cccc(CN(C)C(=O)c2cccc(C3CCCNC3)c2)c1 (centres undefined)	-2.36
CN(CCCC1CCCO1)C(=O)c1cccc(C#N)c1 (centres undefined)	-5.92
O=C(N[C@H]1CC[C@H](O)CC1)c1ccc2nc(-c3ccc(F)cc3)cn2c1	-9.74

Compound	cytotoxicity at 70.5 h [%]
COc1ccc(CN2CC[C@@]3(O)CCCC[C@H]3C2)cc1C(=O)O	8.88
CC(C)O[C@H]1CN(C(=O)CCN2CCCCO2)C[C@@H]1O	11.2
Cc1cc(CC(C)Nc2ncc(C)c(N(C)C)n2)[nH]n1 (centres undefined)	-1.49
CC(C)Cc1noc(CN(C)c2ncccn2)n1	-3.77
CCc1cc(NCCc2cccnc2)n2nc(C)c(C)c2n1	-5.81
CCc1ncc(CN2C[C@H]3CC[C@@H]2CN(C(=O)C2CCC2)C3)cn1	-6.96
CCCN1CCCn2nc(CNS(=O)(=O)c3cnn(CC)c3)cc2C1	-3.06
COc1ccccc1CN1C(=O)O[C@@H]2CN(c3nc(C)cnc3C)C[C@@H]21	-3.32
CCOc1ccccc1CC(=O)N1C[C@H](C2CC2)[C@@H](N)C1	-0.519
CCc1nnc(CN(C)c2nccc(N3CCCC(O)C3)n2)o1 (centres undefined)	27.2
Cc1cc(F)c(C(C(=O)O)N2CCN(Cc3ccccn3)CC2)cc1Cl (centres undefined)	-6.6
CCc1cc(NC(CCO)c2ccc(OC)cc2)n2nccc2n1 (centres undefined)	-0.73
C[C@@H]1CN(C2Cc3ccccc3C2)CC[C@@]1(O)C1CCOCC1	-10.1
CN(CC(=O)N1CC(C)(C)[C@@](C)(O)C1)Cc1ccncc1	-6.29
CCCn1cc(-c2cc(C(=O)N(C)C)c3ccc(OC)cc3n2)cn1	-3.58
CC(C)C1CN(S(C)(=O)=O)CCCN1Cc1ccc(F)cc1 (centres undefined)	-3.17
CC(C)[C@H]1CN(CC2CCC2)C[C@@H]1NC(=O)c1ccc(=O)[nH]c1	3.69
Cc1cc(NCCc2nc(C)c[nH]2)nc(-c2ccccc2O)n1	-1.72
CN(C)c1ccc(C(=O)N2CCCN(C3CCCCC3)CC2)cn1	-7.27
CN(Cc1ccc(-n2cccn2)cc1)Cc1cnc(N(C)C)nc1	-8.45
CC(C)=CCN1CCN(C(=O)c2cc(C(C)C)on2)[C@H]2CS(=O)(=O)C[C@H]21	-8.01
O=C1NC2(CCN(Cc3ccccc3Cl)CC2)CC1c1ccccc1 (centres undefined)	-9.33

Compound	cytotoxicity at 70.5 h [%]
CCCN1CCC(Cc2noc(-c3ncccc3C)n2)CC1	-5.81
OC1(CN2CCCC2)COCCN(c2ncnc3[nH]cnc23)C1 (centres undefined)	-0.684
CC(C)=CCN1CCC(c2nnc(CN3CCN(C)CC3)n2C)CC1	35
O=C1CCOCCN1Cc1ccc(Cl)c(Cl)c1	33.5
Cc1ccccc1OC1CN(Cc2c(C)nc3ccccn23)C1	26.8
O=C(NCC1(O)CCCCC1)c1coc(COc2cccc(F)c2)n1	1.09
Fc1cccc(-c2n[nH]cc2-c2nc(CN3CCOCC3)no2)c1	15.5
CSc1ccc(C(=O)N2C[C@H]3CC[C@@H]2CN(Cc2cccnc2)C3)cc1	-5.35
O=C(C1CC(=O)N(C2CC2)C1)N1CCC(Oc2ccccc2Cl)CC1 (centres undefined)	0.0694
O=C(NCC1CCCN(C(=O)NCCc2ccccc2)C1)c1ccco1 (centres undefined)	-0.863
Cc1nnc(NCCn2nc(C)c(Cl)c2C)o1	-6.66
Cc1nnc(SCCNC(=O)CC2CCc3ccccc32)s1 (centres undefined)	-4.12
COc1cc(CNC(C)Cn2cccn2)cc2c1OCO2 (centres undefined)	-9.7
CN(C)C(=O)N1CC2(CCNCC2)c2cc(Cl)ccc21	24.1
Cc1nc(CN2C[C@@H]3CN(C(=O)NC(C)C)C[C@@H]3C2=O)cs1	-5.1
O=C(NC1CCCC1)[C@H]1C[C@H]2OCC[C@H]2N(Cc2ccoc2)C1	-4.07
COCCNC(=O)[C@H]1C[C@H]2OCC[C@H]2N(Cc2ccoc2)C1	-3.39
O=C1CCCN1Cc1ncn2c1CN(Cc1cccs1)CCC2	-1.34
CC1CCN(C(=O)[C@@H]2C[C@H]3OCC[C@H]3N(Cc3ccoc3)C2)CC1	-2.6
Cc1noc([C@@H]2C[C@H]3OCC[C@H]3N(Cc3cc(C)c(C)o3)C2)n1	-6.09
Cc1cc(CN2C[C@@H]3COC[C@]3(CNC(=O)N(C)C)C2)no1	-1.07
CN(C)c1ncnc2c1CCN(C(=O)c1cccnc1)CC2	-6.66

Compound	cytotoxicity at 70.5 h [%]
CCc1ncnc2c1CCN(C(=O)c1ccncc1F)CC2	-6.52
O=C(NC1CC1)N1CCn2c(Cn3cccn3)cnc2C1	-5.68
CCOCC1CN(C(=O)Cc2ccsc2)Cc2ccnn2C1 (centres undefined)	-6.83
O=C1CC(c2ccncc2)C2(CCN(C(=O)c3cccs3)CC2)N1 (centres undefined)	43.8
Cn1cnc2c1C(COCC1CCOCC1)CN(C(=O)c1ccco1)C2 (centres undefined)	-8.23
Cc1ccccc1C(=O)N1C[C@@H]2CCN(c3cccnc3)C[C@@H]2C1	-4.88
O=C(c1ccc(F)cc1)N1C[C@@H]2CCN(c3cccnc3)C[C@@H]2C1	-11.2
Cc1ccc(C(=O)N2C[C@@H]3CCN(c4cccnc4)C[C@@H]3C2)cn1	-12.4
O=C(C1CCCC1)N1C[C@@H]2CCN(c3cccnc3)C[C@@H]2C1	-11.4
CCS(=O)(=O)N1Cc2ncn(C)c2C(COCC2CCOCC2)C1 (centres undefined)	-3.96
Cn1cnc2c1C(COCC1CCOCC1)CN(C(=O)C1CC=CC1)C2 (centres undefined)	-2.11
Cc1ccc(N2C[C@H](C(=O)NCC3CC3)[C@@H]3CCO[C@@H]3C2)nn1	-9.32
Cc1nc[nH]c1CN1C[C@@H]2OCCN(c3ncccn3)[C@@H]2C1	-10.6
CN(C)C(=O)CN1C(=O)C[C@@H]2[C@@H]1CCN2Cc1cccc(C#N)c1	6.8
CN(C)C(=O)c1cnc2n1CCN(Cc1ccsc1)C2	2.92
Cc1noc(C)c1CN1Cc2cnn(C)c2C(COCC2CC2)C1 (centres undefined)	-10.8
c1ccc(CN2CCc3ncnc(-c4ccncc4)c3CC2)nc1	22.4
Cc1ccc(CN2CC[C@H]3C(=O)N(Cc4cccnc4)CCO[C@H]3C2)o1	-8.65
CN(C)[C@@H]1CCN(C(=O)c2ccsc2)[C@H]1Cc1cccnc1	2.91
CCOCC1CN(CCN2CCCCC2)Cc2cnn(C)c21 (centres undefined)	2.16
Cn1cnc2c1C(COCC1CCOCC1)CN(Cc1ccccn1)C2 (centres undefined)	-15.9
